Read-outs that look alike come from different tables or passages of the source. Positions of bridges follow the written chain, without caps; N, C: chain ends. Non-standard residues stand in square brackets, D forms with d. Residues, ends and D or L forms follow the SMILES beside them. *: point of attachment. Phe(4-CF3) = N[C@@H](Cc1ccc(C(F)(F)F)cc1)C(=O)O; NMePhe(3-Cl) = CN[C@@H](Cc1cccc(Cl)c1)C(=O)O; NMeF = CN[C@@H](Cc1ccccc1)C(=O)O; NMeI = CC[C@H](C)[C@H](NC)C(=O)O; NMeD = CN[C@@H](CC(=O)O)C(=O)O; NMeL = CN[C@@H](CC(C)C)C(=O)O; NMeV = CN[C@H](C(=O)O)C(C)C; Pip = O=C(O)[C@@H]1CCCCN1; NMeA = CN[C@@H](C)C(=O)O; Piperidide = C1CCN(*)CC1; NPrGly = CCCNCC(=O)O; NEtG = CCNCC(=O)O; Sar = CNCC(=O)O; tBu = CC(C)(C)*
Assay: Caco-2 membrane permeability, improved method as used in the following Examples (96-well, 20 to 24 h preincubation)
Format: in vitro ADME
Details: human
Outline: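 Papp (cm/sec) was derived from LC/MS of basal samples collected 180 min after apical dosing in FaSSIF/HBSS pH 6.0 with 1% DMSO, against a basal HBSS pH 7.4 receiver containing 4% BSA. Three-week Caco-2 cultures were first preincubated with compound in DMEM+FaSSIF at 37 °C for 20–24 h.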

Compound	Papp A→B at 180 min (Caco-2, Caco-2 (cm/sec)) [×10⁻⁶ cm/s]	other results
CC(C)C[C@H]1C(=O)N[C@H](C(=O)N2CCCCC2)CC(=O)N[C@H](C)C(=O)N(C)[C@@H](CC(C)C)C(=O)N[C@@H](COC(C)(C)C)C(=O)N(C)[C@@H](CC(C)C)C(=O)N2CCCC[C@H]2C(=O)N(C)[C@@H](C)C(=O)N[C@@H]([C@@H](C)O)C(=O)N(C)[C@@H](Cc2ccccc2)C(=O)N[C@@H](Cc2ccc(C(F)(F)F)cc2)C(=O)N1C [pd137] ([dA][NMeL]S(tBu)[NMeL][Pip][NMeA]T[NMeF][Phe(4-CF3)][NMeL]D-Piperidide; lactam N-11)	2.2	
CC(C)C[C@H]1C(=O)N[C@@H](COC(C)(C)C)C(=O)N(C)[C@@H](Cc2ccccc2)C(=O)N(C)[C@@H](C)C(=O)N[C@H](C(=O)N2CCCCC2)CC(=O)N[C@H](C(C)C)C(=O)N(C)[C@@H](CC(C)C)C(=O)N[C@@H](Cc2ccc(C(F)(F)F)cc2)C(=O)N(C)[C@@H](CC(C)C)C(=O)N[C@@H]([C@@H](C)O)C(=O)N(C)CC(=O)N1C [pd138] ([dV][NMeL][Phe(4-CF3)][NMeL]T[Sar][NMeL]S(tBu)[NMeF][NMeA]D-Piperidide; lactam N-11)	2.6	
CC(C)C[C@H]1C(=O)N(C)[C@@H](CC(C)C)C(=O)N[C@@H](COC(C)(C)C)C(=O)N(C)[C@@H](C(C)C)C(=O)N[C@H](C(=O)N2CCCCC2)CC(=O)N(C)CC(=O)N(C)[C@@H](Cc2ccccc2)C(=O)N[C@@H](Cc2ccc(C(F)(F)F)cc2)C(=O)N(C)[C@@H](CC(C)C)C(=O)N[C@@H]([C@@H](C)O)C(=O)N(C)CC(=O)N1C [pd140] ([Sar][NMeF][Phe(4-CF3)][NMeL]T[Sar][NMeL][NMeL]S(tBu)[NMeV]D-Piperidide; lactam N-11)	2.5	
CC(C)C[C@H]1C(=O)N[C@H](C(=O)N2CCCCC2)CC(=O)N[C@H](C)C(=O)N(C)[C@@H](CC(C)C)C(=O)N2CCCC[C@H]2C(=O)N(C)[C@@H](CC(C)C)C(=O)N2CCCC[C@H]2C(=O)N(C)[C@@H](C)C(=O)N[C@@H]([C@@H](C)O)C(=O)N(C)[C@@H](Cc2ccccc2)C(=O)N[C@@H](Cc2ccc(C(F)(F)F)cc2)C(=O)N1C [pd141] ([dA][NMeL][Pip][NMeL][Pip][NMeA]T[NMeF][Phe(4-CF3)][NMeL]D-Piperidide; lactam N-11)	2.1	
CC[C@H](C)[C@H]1C(=O)N[C@@H]([C@@H](C)O)C(=O)N(C)CC(=O)N(C)[C@@H](CC(C)C)C(=O)N[C@H](C(=O)N2CCCCC2)CC(=O)N(C)[C@@H](C)C(=O)N[C@@H](CC(C)C)C(=O)N(C)[C@@H](CC(C)C)C(=O)N(C)[C@@H](CC(C)C)C(=O)N[C@@H](Cc2ccc(C(F)(F)F)cc2)C(=O)N(C)[C@@H](C)C(=O)N1C [pd142] ([NMeA]L[NMeL][NMeL][Phe(4-CF3)][NMeA][NMeI]T[Sar][NMeL]D-Piperidide; lactam N-11)	2.9	
CCN1CC(=O)N[C@@H]([C@@H](C)O)C(=O)N(C)[C@@H](CC(C)C)C(=O)N(C)[C@@H](CC(C)C)C(=O)N[C@@H](Cc2ccc(C(F)(F)F)cc2)C(=O)N[C@H](C(=O)N2CCCCC2)CC(=O)N[C@@H](COC(C)(C)C)C(=O)N(C)[C@@H](CC(C)C)C1=O [pd143] (S(tBu)[NMeL][NEtG]T[NMeL][NMeL][Phe(4-CF3)]D-Piperidide; lactam N-8)	1.1	
CC[C@H](C)[C@@H]1NC(=O)[C@H](CC(C)C)NC(=O)[C@H](CC(C)C)N(C)C(=O)[C@H](C)NC(=O)C[C@@H](C(=O)N2CCCCC2)NC(=O)[C@H](CC(C)C)N(C)C(=O)[C@H]([C@@H](C)O)NC(=O)[C@H](Cc2ccc(C(F)(F)F)cc2)NC(=O)[C@H](CC(C)C)N(C)C1=O [pd144] (A[NMeL]LI[NMeL][Phe(4-CF3)]T[NMeL]D-Piperidide; lactam N-9)	2.1	
CC(C)C[C@@H]1NC(=O)[C@H](CC(C)C)N(C)C(=O)[C@H](C(C)C)NC(=O)C[C@@H](C(=O)N2CCCCC2)NC(=O)[C@H](CC(C)C)N(C)C(=O)[C@H](Cc2ccccc2)N(C)C(=O)[C@H]([C@@H](C)O)NC(=O)[C@H](Cc2ccc(C(F)(F)F)cc2)NC(=O)[C@H](C)N(C)C1=O [pd145] (V[NMeL]L[NMeA][Phe(4-CF3)]T[NMeF][NMeL]D-Piperidide; lactam N-9)	1.2	
CC(C)C[C@@H]1NC(=O)[C@H](CC(C)C)N(C)C(=O)[C@H](C(C)C)NC(=O)C[C@@H](C(=O)N2CCCCC2)NC(=O)[C@H](CC(C)C)N(C)C(=O)[C@H]([C@@H](C)O)NC(=O)[C@H](Cc2ccc(C(F)(F)F)cc2)NC(=O)[C@H](CC(C)C)N(C)C(=O)[C@H](C)N(C)C1=O [pd146] (V[NMeL]L[NMeA][NMeL][Phe(4-CF3)]T[NMeL]D-Piperidide; lactam N-9)		Papp A→B at 180 min (Caco-2, read-out: Caco-2): 1.7 ×10⁻⁶ cm/s
CCCN1CC(=O)N[C@@H]([C@@H](C)O)C(=O)N[C@H](C(=O)N2CCCCC2)CC(=O)N(C)[C@@H](CC(C)C)C(=O)N[C@@H](Cc2ccc(C(F)(F)F)cc2)C(=O)N(C)[C@@H](CC(C)C)C(=O)N(C)[C@@H](CC(C)C)C(=O)N[C@@H](COC(C)(C)C)C1=O [pd147] ([NMeL][Phe(4-CF3)][NMeL][NMeL]S(tBu)[NPrGly]TD-Piperidide; lactam N-8)		Papp A→B at 180 min (Caco-2, improved method, preincubation 20 to 24 hours, Papp, sample at 180 minutes, read-out: Caco-2): 1.9 ×10⁻⁶ cm/s
CC(C)C[C@@H]1NC(=O)[C@H](CC(C)C)N(C)C(=O)[C@H](CC(C)C)N(C)C(=O)CN(C)C(=O)[C@H]([C@@H](C)O)NC(=O)[C@H](CC(C)C)N(C)C(=O)[C@H](CC(C)C)N(C)C(=O)[C@H](Cc2ccc(C(F)(F)F)cc2)NC(=O)[C@@H](C(C)C)NC(=O)C[C@@H](C(=O)N2CCCCC2)NC1=O [pd148] ([dV][Phe(4-CF3)][NMeL][NMeL]T[Sar][NMeL][NMeL]LD-Piperidide; lactam N-10)	1.1	
CC(C)C[C@@H]1NC(=O)[C@H](CC(C)C)N(C)C(=O)[C@@H](C)NC(=O)C[C@@H](C(=O)N2CCCCC2)N(C)C(=O)[C@H](CC(C)C)N(C)C(=O)[C@H]([C@@H](C)O)NC(=O)[C@H](CC(C)C)N(C)C(=O)[C@H](Cc2ccc(C(F)(F)F)cc2)NC1=O [pd149] ([dA][NMeL]L[Phe(4-CF3)][NMeL]T[NMeL][NMeD]-Piperidide; lactam N-8)	1.7	
CC(C)C[C@H]1C(=O)N(C)CC(=O)N[C@@H](Cc2ccccc2)C(=O)N[C@@H](Cc2ccc(C(F)(F)F)cc2)C(=O)N(C)[C@@H](CC(C)C)C(=O)N(C)[C@@H](CC(C)C)C(=O)N[C@@H]([C@@H](C)O)C(=O)N(C)[C@H](C(=O)N2CCCCC2)CC(=O)N1C [pd150] ([NMeL][Sar]F[Phe(4-CF3)][NMeL][NMeL]T[NMeD]-Piperidide; lactam N-8)	1.7	
CC(C)C[C@@H]1NC(=O)C[C@@H](C(=O)N2CCCCC2)N(C)C(=O)[C@H](Cc2ccc(C(F)(F)F)cc2)NC(=O)[C@H](CC(C)C)N(C)C(=O)CN(C)C(=O)[C@H]([C@@H](C)O)NC(=O)[C@H](CC(C)C)N(C)C(=O)[C@H](CC(C)C)N(C)C1=O [pd151] (L[NMeL][NMeL]T[Sar][NMeL][Phe(4-CF3)][NMeD]-Piperidide; lactam N-8)	3.2	
CCCN1CC(=O)N(C)[C@@H](CC(C)C)C(=O)N[C@@H](COC(C)(C)C)C(=O)N[C@H](C(=O)N2CCCCC2)CC(=O)N(C)[C@@H](CC(C)C)C(=O)N[C@@H](Cc2ccc(C(F)(F)F)cc2)C(=O)N(C)[C@@H](CC(C)C)C(=O)N(C)[C@@H]([C@@H](C)CC)C(=O)N[C@@H]([C@@H](C)O)C1=O [pd152] ([NMeL][Phe(4-CF3)][NMeL][NMeI]T[NPrGly][NMeL]S(tBu)D-Piperidide; lactam N-9)	1.2	
CC(C)C[C@@H]1NC(=O)C[C@@H](C(=O)N2CCCCC2)NC(=O)[C@H](CC(C)C)N(C)C(=O)[C@H](CC(C)C)N(C)C(=O)[C@H](Cc2ccc(C(F)(F)F)cc2)NC(=O)[C@H](CC(C)C)N(C)C(=O)[C@H]([C@@H](C)O)NC(=O)[C@H](CC(C)C)N(C)C(=O)[C@H](C)N(C)C1=O [pd153] (L[NMeA][NMeL]T[NMeL][Phe(4-CF3)][NMeL][NMeL]D-Piperidide; lactam N-9)	1.4	
CC(C)C[C@H]1C(=O)N[C@@H](COC(C)(C)C)C(=O)N(C)[C@@H](Cc2ccccc2)C(=O)N(C)[C@@H](CC(C)C)C(=O)N[C@H](C(=O)N2CCCCC2)CC(=O)N[C@@H](C)C(=O)N(C)[C@@H](Cc2cccc(Cl)c2)C(=O)N[C@@H](C(C)C)C(=O)N(C)[C@@H](C(C)C)C(=O)N[C@@H]([C@@H](C)O)C(=O)N(C)CC(=O)N1C [pd154] (A[NMePhe(3-Cl)]V[NMeV]T[Sar][NMeL]S(tBu)[NMeF][NMeL]D-Piperidide; lactam N-11)	1.4	
CC(C)C[C@H]1C(=O)N[C@@H](COC(C)(C)C)C(=O)N(C)[C@@H](Cc2ccccc2)C(=O)N(C)[C@@H](CC(C)C)C(=O)N[C@H](C(=O)N2CCCCC2)CC(=O)N2CCC[C@@H]2C(=O)N(C)[C@@H](Cc2cccc(Cl)c2)C(=O)N[C@@H](C(C)C)C(=O)N(C)[C@@H](C(C)C)C(=O)N[C@@H]([C@@H](C)O)C(=O)N(C)CC(=O)N1C [pd155] ([dP][NMePhe(3-Cl)]V[NMeV]T[Sar][NMeL]S(tBu)[NMeF][NMeL]D-Piperidide; lactam N-11)	2.1	

From US20200131669A1, “CYCLIC PEPTIDE COMPOUND HAVING HIGH MEMBRANE PERMEABILITY, AND LIBRARY CONTAINING SAME” (Chugai Seiyaku Kabushiki Kaisha, priority 2017, published 2020)
